# Reference: PubChem BioAssay AID179 (DTP/NCI, 2004)
# Calls of active or inactive are those of the source.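 How the source made its calls: active means compounds giving half or more protection of infected cells from virus-caused growth loss, again on retest; inactive means the rest.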
# Tested on: CEM cells HIV-1 protection, formazan growth assay
# Experiment: NCI AIDS Antiviral Assay
# Settings: for IC50: measured here: growth of uninfected CEM cells
# How it was run: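 CEM (human) cells, HIV-1 infected vs uninfected, 5-point dosing, formazan growth read-out. Retest threshold 50% protection.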
SMILES,EC50 [µM],IC50 [µM],outcome
Cc1cc(N(CCC#N)CCC#N)ccc1/C(N=Nc1ccc([N+](=O)[O-])cc1)=N\NC(=O)c1ccccc1,> 200,16.2,–
COC(=O)C(=O)C(/C=N/C(=S)NCCc1ccc(OC)c(OC)c1)=C(/O)c1ccc([N+](=O)[O-])cc1,> 100,> 100,–
COc1cc2c3c(c1OC)C1(C=CC(=O)C=C1)C[C@H]3N(C)CC2,–,–,inactive
O=S1(=O)OCCOS(=O)(=O)C1Cl,> 1050,178,–
COC(=O)C1(Cc2ccccc2)Cc2c(C)ccc(C)c2C1=O (configuration not stated),> 200,> 200,–
CO[C@@H]1C2C3c4ccccc4C(c4ccccc43)C2[C@H](OC)[C@H]2OC(c3ccccc3)O[C@H]21 (some centres not stated),> 67.6,> 67.6,–
N=C(N)c1ncn(C2OC(CO)C(O)C2O)n1 (configuration not stated),–,–,inactive
Cc1ccc(SC2C(=O)C3CC(OCc4ccccc4)C2(C)C3(C)C)cc1 (configuration not stated),> 200,> 200,–
Cc1c(NC(=O)OCc2ccccc2)no[n+]1[O-],> 550,129,–
O=[N+]([O-])c1ccc(Cl)cc1-n1nc(-c2ccccc2)cc1-c1ccccc1,> 200,> 200,–
COC(=O)[C@@H]1CCCN1C(=O)C1Cc2c([nH]c3ccccc23)[C@@H](C=C(C)C)N1C(=O)OC(C)(C)C(Cl)(Cl)Cl (some centres not stated),–,–,inactive
O=C(NC(=Nc1ccccc1)SCCSC(=Nc1ccccc1)NC(=O)c1cccs1)c1cccs1,> 3.63,> 3.63,–
Cc1c(O)nc(-n2[nH]c3c(c2=O)CCCC3)[nH]c1=O,> 200,> 200,–
C(=C\c1nc2ccccc2s1)/c1ccc2c(c1)OCO2,> 6.76,> 6.76,–
CC(C)(C)C1=NC(=S)SC2=NC(=O)C3(NN21)c1ccccc1-c1ccccc13,> 200,20,–
COc1ccc(/C=C2\NC(=S)N(/C=C3\C(=O)Oc4ccccc4C3=O)C2=O)cc1OC,> 200,> 200,–

SMILES,EC50 [µM],IC50 [µM],outcome
CC1=NC(C)CNC(C)(C)CC(C)=NC(C)CNC(C)(C)C1 (configuration not stated),> 200,> 200,–
NC(Cc1ccccc1CP(=O)(O)O)C(=O)O (configuration not stated),> 200,> 200,–
CCOC(=O)/C(C=Nc1c(C)n(C)n(-c2ccccc2)c1=O)=C(/O)c1ccccc1,> 200,> 200,–
CC(=O)Nc1nc(C)c(CCC#N)c(SC(=N)N)n1,> 200,> 200,–
Cn1c(=O)[nH]n(C2Cn3c(=O)n(C)c(=O)n3-c3ccccc32)c1=O (configuration not stated),> 200,> 200,–
CC1OC1C(=O)P(=O)(O)O (configuration not stated),> 200,> 200,–
N#Cc1c(C(N)=O)ncn1Cc1ccccc1,–,–,inactive
c1cncc(-c2nc3sc(-c4cccnc4)nc3s2)c1,–,–,inactive
CC(=O)OC(Cc1c(O)c2c(C)cccc2oc1=O)C(C)(C)O (configuration not stated),> 200,91.2,–
CCN(CC)c1c([N+](=O)[O-])c(=O)nc2ccccn12,> 200,105,–
CC(NC(=O)c1ccccc1)C(=O)N(Cc1ccccc1)Cc1ccccc1 (configuration not stated),> 97.7,> 97.7,–
Cc1cc(C)c2c(c1)CC1(Cc3c(C)cc(C)cc3C1=O)C2=O (configuration not stated),> 100,> 100,–
CCOC(=O)C1=NC(c2ccccc2)(c2ccccc2)OC1=C(Cl)Cl,> 1,> 1,–
COCCCC(NC(=O)C(CC(C)C)NC(=O)OCc1ccc(OC)cc1)C(=O)OC (configuration not stated),> 200,33.1,–
CN1c2ccccc2C(=O)NC12CCNCC2,> 200,> 200,–
